Laboratory results as given in PMC10385824, “Antiproliferative and Tubulin-Destabilising Effects of 3-(Prop-1-en-2-yl)azetidin-2-Ones and Related Compounds in MCF-7 and MDA-MB-231 Breast Cancer Cells” (Pharmaceuticals, 2023).
Like-named read-outs stand apart in the source and are kept apart here.

Columns and labels:
[1] = system: purified bovine brain tubulin; test: Tubulin polymerization assay (light scattering, BK006 kit); assay type: biochemical; conditions: compound at 10 μM; relative to vehicle
Method in brief: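 Purified bovine brain tubulin (3 mg/mL) in PIPES 80 mM pH 6.9, EGTA, MgCl2, 1 mM GTP, 10% glycerol incubated at 37 °C with compound at 10 µM or vehicle (1% DMSO or EtOH). Assembly followed turbidimetrically at 340 nm; values are means of two independent assays.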

[2] = system: HL-60(TB); test: NCI-60 SRB screen, leukemia; assay type: cell-based, human; conditions: Homo sapiens
[3] = system: K-562; test: NCI-60 SRB screen, leukemia; assay type: cell-based, human; conditions: Homo sapiens, K562, 48 h; read-out: GI50
[4] = system: RPMI-8226; test: NCI-60 SRB screen, leukemia; assay type: cell-based, human; conditions: Homo sapiens; RPMI-8226; five dose 0.01–100 µM, 48 h; read-out: GI50
[5] = system: SR; test: NCI-60 SRB screen, leukemia; assay type: cell-based, human; conditions: Homo sapiens, five dose 0.01–100 µM, 48 h, read-out: GI50
[6] = system: EKVX; test: NCI-60 SRB screen, non-small cell lung cancer; assay type: cell-based, human; conditions: Homo sapiens, five dose 0.01–100 µM, 48 h, read-out: GI50
[7] = system: HOP-62; test: NCI-60 SRB screen, non-small cell lung cancer; assay type: cell-based, human; conditions: Homo sapiens; HOP-62; five dose 0.01–100 µM, 48 h; read-out: GI50
[8] = system: NCI-H460; test: NCI-60 SRB screen, non-small cell lung cancer; assay type: cell-based, human; conditions: Homo sapiens; NCI-H460; five dose 0.01–100 µM, 48 h; read-out: GI50
[9] = system: NCI-H552; test: NCI-60 SRB screen, non-small cell lung cancer; assay type: cell-based, human; conditions: Homo sapiens; NCI-H552; five dose 0.01–100 µM, 48 h; read-out: GI50
[10] = system: HCT-116; test: NCI-60 SRB screen, colon cancer; assay type: cell-based, human; conditions: Homo sapiens; HCT-116; five dose 0.01–100 µM, 48 h; read-out: GI50
[11] = system: HT29; test: NCI-60 SRB screen, colon cancer; assay type: cell-based, human; conditions: Homo sapiens, HT-29; for GI50: HT29, five dose 0.01–100 µM, 48 h, read-out: GI50
[12] = system: SF295; test: NCI-60 SRB screen, CNS cancer; assay type: cell-based, human; conditions: Homo sapiens, SF-295; SF295; five dose 0.01–100 µM, 48 h; read-out: GI50
[13] = system: SF539; test: NCI-60 SRB screen, CNS cancer; assay type: cell-based, human; conditions: Homo sapiens, SF-539; SF539; five dose 0.01–100 µM, 48 h; read-out: GI50
[14] = system: SNB-75; test: NCI-60 SRB screen, CNS cancer; assay type: cell-based, human; conditions: Homo sapiens; SNB-75; five dose 0.01–100 µM, 48 h; read-out: GI50
[15] = system: DU-145; test: NCI-60 SRB screen, prostate cancer; assay type: cell-based, human; conditions: Homo sapiens; DU-145; five dose 0.01–100 µM, 48 h; read-out: GI50
[16] = system: SK-MEL-2; test: NCI-60 SRB screen, melanoma; assay type: cell-based, human; conditions: Homo sapiens; SK-MEL-2; five dose 0.01–100 µM, 48 h; read-out: GI50
[17] = system: SK-MEL-28; test: NCI-60 SRB screen, melanoma; assay type: cell-based, human; conditions: Homo sapiens; SK-MEL-28; five dose 0.01–100 µM, 48 h; read-out: GI50
[18] = system: OVCAR-4; test: NCI-60 SRB screen, ovarian cancer; assay type: cell-based, human; conditions: Homo sapiens; OVCAR-4; five dose 0.01–100 µM, 48 h; read-out: GI50
[19] = system: OVCAR-8; test: NCI-60 SRB screen, ovarian cancer; assay type: cell-based, human; conditions: Homo sapiens; OVCAR-8; five dose 0.01–100 µM, 48 h; read-out: GI50
[20] = system: SK-OV-3; test: NCI-60 SRB screen, ovarian cancer; assay type: cell-based, human; conditions: Homo sapiens; SK-OV-3; five dose 0.01–100 µM, 48 h; read-out: GI50
[21] = system: ACHN; test: NCI-60 SRB screen, renal cancer; assay type: cell-based, human; conditions: Homo sapiens, five dose 0.01–100 µM, 48 h, read-out: GI50
[22] = system: RXF 393; test: NCI-60 SRB screen, renal cancer; assay type: cell-based, human; conditions: Homo sapiens; RXF 393; five dose 0.01–100 µM, 48 h; read-out: GI50
[23] = system: SN12C; test: NCI-60 SRB screen, renal cancer; assay type: cell-based, human; conditions: Homo sapiens, five dose 0.01–100 µM, 48 h, read-out: GI50
[24] = system: UO-31; test: NCI-60 SRB screen, renal cancer; assay type: cell-based, human; conditions: Homo sapiens; UO-31; five dose 0.01–100 µM, 48 h; read-out: GI50
[25] = system: HS 578T; test: NCI-60 SRB screen, breast cancer; assay type: cell-based; conditions: Homo sapiens; HS 578T; five dose 0.01–100 µM, 48 h; read-out: GI50
[26] = system: BT-549; test: NCI-60 SRB screen, breast cancer; assay type: cell-based, human; conditions: Homo sapiens; BT-549; five dose 0.01–100 µM, 48 h; read-out: GI50
[27] = system: MDA-MB-468; test: NCI-60 SRB screen, breast cancer; assay type: cell-based, human; conditions: Homo sapiens; MDA-MB-468; five dose 0.01–100 µM, 48 h; read-out: GI50
[28] = system: NCI 60 human cancer cell line panel; test: NCI 60 cell line screen (SRB), panel values; conditions: for IC (TGI (total growth inhibition)): read-out: Mean TGI
[29] = HL-60(TB), five dose 0.01–100 µM, 48 h
[30] = Homo sapiens, 60 cell, read-out: Mean GI50, mean over all NCI 60 cell lines
[31] = Homo sapiens, 60 cell, read-out: Mean LC50
[32] = read-out: Mean GI50, mean over all NCI 60 cell lines

Row | SMILES | GI50 [2, 29] | GI50 ([2]; HL-60, NCI screen) | GI50 [3] | GI50 [4] | GI50 [5] | GI50 [7] | GI50 [8] | GI50 [9] | GI50 [10] | GI50 [11] | GI50 [12] | GI50 [13] | GI50 [14] | GI50 [15] | GI50 [16] | GI50 [18] | GI50 [19] | GI50 [20] | GI50 [21] | GI50 [22] | also measured
1 | C=C(C)C1C(=O)N(c2cc(OC)c(OC)c(OC)c2)C1c1ccc(OC)c(N)c1 (stereo not shown) [9s, 4-(3-Amino-4-methoxyphenyl)-1-(3,4,5-trimethoxyphenyl)-3-(prop-1-en-2-yl)azetidin-2-one] | 28.3 nM | < 34 nM | 38.3 nM | 35.9 nM | 30.4 nM | 52.1 nM | 33.2 nM | 14.6 nM | 30.2 nM | 33.7 nM | 34.4 nM | 40.2 nM | 60.1 nM | 23.6 nM | 67.6 nM | 40.7 nM | 30.8 nM | 31.7 nM | 62 nM | 39.6 nM | Fold Reduction in Vmax [1]: 2.66; GI50 [6]: 587 nM; IC50 ([11]; text of the NCI screening section, read-out: IC50): 34 nM; GI50 [17]: > 100000 nM; GI50 [23]: 62.9 nM; GI50 [24]: 74 nM; GI50 [25]: 40.9 nM; GI50 [26]: 37.8 nM; GI50 [27]: 21.6 nM; GI50 [28, 30]: < 91.2 nM; CC50 [28, 31]: 75900 nM; IC (TGI (total growth inhibition)) ([28]; Homo sapiens, 60 cell): 22400 nM; GI50 [28, 32]: 55 nM
2 | C=C(C)C1C(=O)N(c2cc(OC)c(OC)c(OC)c2)C1c1ccc(OC)cc1 (stereo not shown) [9h, 4-(4-Methoxyphenyl)-1-(3,4,5-trimethoxyphenyl)-3-(prop-1-en-2-yl)azetidin-2-one] | 33.1 nM | < 34 nM | 41 nM | 39.9 nM | 38.5 nM | 57.6 nM | 35.6 nM | 22.2 nM | 31.7 nM | 35.4 nM | 43 nM | 35.2 nM | 38 nM | 29.1 nM | 18600 nM | 39.1 nM | 37.3 nM | 38.1 nM | 64.3 nM | 37.5 nM | Fold Reduction in Vmax [1]: 1.81; GI50 [6]: 81.3 nM; GI50 [23]: 50.3 nM; GI50 [24]: 505 nM; GI50 [25]: 39.1 nM; GI50 [26]: 32.9 nM; GI50 [27]: 25 nM; CC50 ([28]; Homo sapiens, 60 cell, 9 h, read-out: LC50): > 100000 nM; GI50 [28, 30]: < 91.2 nM; CC50 [28, 31]: 87100 nM; IC (TGI (total growth inhibition)) ([28]; Homo sapiens, 60 cell): 15500 nM; GI50 [28, 32]: 58.9 nM
3 | C=C(C)C1C(=O)N(c2cc(OC)c(OC)c(OC)c2)C1c1ccc(OC)c(OP(=O)(O)O)c1 (stereo not shown) [15a, 2-Methoxy-5-(4-oxo-3-(prop-1-en-2-yl)-1-(3,4,5-trimethoxyphenyl)azetidin-2-yl)-phenyl dihydrogen phosphate] | 27.9 nM | < 34 nM | 45 nM | 105 nM | 53.1 nM | 105 nM | 44.8 nM | 26 nM | 50.6 nM | 577 nM | 32.4 nM | 39.8 nM | 36.1 nM | 80.9 nM | 75 nM | 73.9 nM | 50.6 nM | 79.1 nM | 77.1 nM | 123 nM | GI50 [17]: 83.1 nM; GI50 [23]: 192 nM; GI50 [24]: 182 nM; GI50 [25]: 63.1 nM; GI50 [26]: 59.6 nM; GI50 [27]: 131 nM; GI50 [28, 30]: 138 nM; CC50 [28, 31]: 85100 nM; IC (TGI (total growth inhibition)) ([28]; Homo sapiens, 60 cell): 43600 nM
